Measurements published in patent US4318916A, “Antibiotic PS-5 and derivatives having β-lactamase inhibitory activity and production thereof” (Sanraku-Ocean Co., Ltd., priority 1977, dated 1982).
≈ marks a conversion by molar mass, not a printed value. Read-outs that look alike come from different tables or passages of the source.

Experiments:
Proteus vulgaris P-5 = experiment: Potentiation disc assay with cephaloridine (Table 10); type: cell-based; conditions: Proteus vulgaris P-5; for Inhibition zone With CER: 50 μg/ml cephaloridine in agar
Description: (§1) (A) Ten milliliters of molten nutrient agar containing 50 μg/ml of penicillin G or cephaloridine, 0.8% of Kyokuto Nutrient Broth Powder and 1.0% of Difco Bacto-Agar (pH 7.0) were seeded with the beta-lactam-resistant, beta-lactamase-producing microorganisms indicated in Tables 9 and 10, and poured in a 9-cm Petri dish to provide the bio-assay agar plate. On this assay plate, 8-mm pulp discs containing 25 μl each of antibiotic PS-5 solutions at the indicated concentrations were placed and incubated at 35° C. for 18 hours before reading the inhibition zones. The control assay plate was similarly prepared without penicillin G nor cephaloridine. As reference antibiotics, penicillin G, ampicillin, oxacillin and cefazolin were disc-assayed under the same conditions.

Enterobacter sp. E-18 = experiment: as above; type: cell-based; conditions: for Inhibition zone With CER: 50 μg/ml cephaloridine in agar
Description: as §1

Serratia marcescens = experiment: as above; type: cell-based; conditions: for Inhibition zone With CER: 50 μg/ml cephaloridine in agar
Description: as §1

Citrobacter freundii E-9 [1] = experiment: as above; type: cell-based; conditions: for Inhibition zone With CER: 50 μg/ml cephaloridine in agar
Description: as §1

Serratia marcescens S-18 [2] = experiment: Potentiation disc assay with penicillin G (Table 9); type: cell-based; conditions: for Inhibition zone With pen. G: 50 μg/ml penicillin G in agar
Description: as §1

Citrobacter freundii E-9 [3] = experiment: as above; type: cell-based; conditions: for Inhibition zone With pen. G: 50 μg/ml penicillin G in agar
Description: as §1

[4] = system: Enterobacter cloacae E-16; experiment: MIC by broth dilution (Table 13); type: cell-based; conditions: E16, 20 h
Description: (§2) The MIC (minimum inhibitory concentration) values of the compound were determined on various pathogenic microorganisms including several resistant strains, utilizing the broth dilution method in BRAIN HEART INFUSION BROTH `Eiken` (EIKEN CHEMICAL CO., LTD.).
(§3) The results were read after incubation at 35° C. for 20 hours. The minimum inhibitory concentration (MIC) values means the lowest concentration unit of the tritylation product of the antibiotic PS-5 was no growth of the corresponding microorganism was observed under the above described conditions. As the control antibiotics,the solutions of ampicillin and cephaloridine were prepared in BRAIN HEART INFUSION BROTH `Eiken` (pH 7.0) at a concentration of 100 μg/ml and treated same as the test compound of the present invention.

Serratia marcescens S-18 [5] = experiment: MIC by broth dilution (Table 13); type: cell-based; conditions: S18, 20 h
Description: as §2, §3

[6] = system: Enterobacter aerogenes E-19; experiment: MIC by broth dilution (Table 13); type: cell-based; conditions: Klebsiella aerogenes, E19, 20 h
Description: as §2, §3

[7] = pH and heat stability of trityl ester of antibiotic PS-5; type: physicochemical; conditions: for remaining at 0.5 h: phosphate buffer, read-out: Residual activity
Description: The trityl ester of antibiotic PS-5 was dissolved in one volume of methanol and then diluted with 9 volumes of distilled water as soon as possible to provide a solution of 125 CCU/ml. A tenth molar dipotassium phosphate solution was adjusted with 5 N phosphoric acid or 5 N sodium hydroxide to the indicated pH's in the range of 3-9.
To one milliliter each of the phosphate buffers, one milliliter each of the said solution of the trityl ester of antibiotic PS-5 was added and, if necessary, the pH value of the mixture was readjusted with phosphoric acid or sodium hydroxyde to the desired pH value. […]
The control solution (pH 7.0) was kept in an ice bath for the experimental period. The residual antibiotic activity was assayed by the routine disc assay method with Comamonas terrigena B-996 as the test microorganism.

[8] = system: Comamonas terrigena B-996; experiment: Disc bio-assay of antimicrobial activity, cephaloridine equivalent units; type: cell-based; conditions: Comamonas-cephaloridine units per mg of the final purified preparation
Description: The overnight culture of Comamonas terrigena B-996 on a nutrient agar slant was suspended in nutrient broth so as to give an optical cell density of 0.040 at 610 nm.
The seed suspension was added in a 1% amount to a molten agar medium containing 0.8% Kyokuto Nutrient Broth Powder (Kyokuto Pharmaceutical Industries Co.) and 1.0% Bacto-Agar (Difco Laboratories). Seven milliliters of the seeded molten agar medium were distributed in a Petri dish (9 cm in diameter) and solidified). This is defined as a Comamonas assay plate.
An 8 mm pulp disc was usually soaked with a sample solution to be assayed, left on a clean sheet of filter paper for a sufficient time to remove the excess solution and then transferred onto an assay plate. After incubation at 35° C. for 20 hours, the diameter of the observed inhibition zone was measured and compared with standard solutions of cephaloridine. The antimicrobial activity of the antibiotic PS-5 and related compounds is expressed as cephaloridine equivalent units/ml.
As well known to those skilled in the art, the assay standard curve varies to some extent, depending on the species of the test microorganisms. […]

Question: Which results are given for CCC1C(=O)N2C(C(=O)O)=C(SCCNC(C)=O)CC12 (single isomer, unassigned) [Antibiotic PS-5]?
Answer: zone of inhibition at 79.5 µg/mL (Proteus vulgaris P-5; P5, 18 h, PS-5 79.5 μg/ml, read-out: Inhibition zone Without CER): 12.5 mm; zone of inhibition at 100 µg/mL (Proteus vulgaris P-5; P5, 18 h, PS-5 100 μg/ml, read-out: Inhibition zone Without CER): 13.7 mm; zone of inhibition at 159 µg/mL (Proteus vulgaris P-5; P5, 18 h, PS-5 159 μg/ml, read-out: Inhibition zone Without CER): 15.2 mm; zone of inhibition at 318 µg/mL (Proteus vulgaris P-5; P5, 18 h, PS-5 318 μg/ml, read-out: Inhibition zone Without CER): 18.5 mm; Inhibition zone With CER (Proteus vulgaris P-5; PS-5 79.5 μg/ml): 21.8 mm; Inhibition zone With CER (Proteus vulgaris P-5; PS-5 100 μg/ml): 22.0 mm; Inhibition zone With CER (Proteus vulgaris P-5; PS-5 159 μg/ml): 24.0 mm; Inhibition zone With CER (Proteus vulgaris P-5; PS-5 318 μg/ml): 25.2 mm; Inhibition zone With CER (Enterobacter sp. E-18; PS-5 79.5 μg/ml): 17.6 mm; Inhibition zone With CER (Enterobacter sp. E-18; PS-5 100 μg/ml): 18.0 mm; Inhibition zone With CER (Enterobacter sp. E-18; PS-5 159 μg/ml): 19.4 mm; Inhibition zone With CER (Enterobacter sp. E-18; PS-5 318 μg/ml): 21.9 mm; zone of inhibition at 79.5 µg/mL (Enterobacter sp. E-18; SP.E18, 18 h, PS-5 79.5 μg/ml, read-out: Inhibition zone Without CER): 15.1 mm; zone of inhibition at 100 µg/mL (Enterobacter sp. E-18; SP.E18, 18 h, PS-5 100 μg/ml, read-out: Inhibition zone Without CER): 16.1 mm; zone of inhibition at 159 µg/mL (Enterobacter sp. E-18; SP.E18, 18 h, PS-5 159 μg/ml, read-out: Inhibition zone Without CER): 18.2 mm; zone of inhibition at 318 µg/mL (Enterobacter sp. E-18; SP.E18, 18 h, PS-5 318 μg/ml, read-out: Inhibition zone Without CER): 21 mm; zone of inhibition at 79.5 µg/mL (Serratia marcescens; 18 h, PS-5 79.5 μg/ml, read-out: Inhibition zone Without CER): 14.8 mm; zone of inhibition at 100 µg/mL (Serratia marcescens; 18 h, PS-5 100 μg/ml, read-out: Inhibition zone Without CER): 16.8 mm; zone of inhibition at 159 µg/mL (Serratia marcescens; 18 h, PS-5 159 μg/ml, read-out: Inhibition zone Without CER): 17 mm; zone of inhibition at 318 µg/mL (Serratia marcescens; 18 h, PS-5 318 μg/ml, read-out: Inhibition zone Without CER): 21 mm; Inhibition zone With CER (Serratia marcescens; PS-5 79.5 μg/ml): 22.3 mm; Inhibition zone With CER (Serratia marcescens; PS-5 100 μg/ml): 23.3 mm; Inhibition zone With CER (Serratia marcescens; PS-5 159 μg/ml): 24.8 mm; Inhibition zone With CER (Serratia marcescens; PS-5 318 μg/ml): 26.1 mm; zone of inhibition at 79.5 µg/mL (Citrobacter freundii E-9 [1]; E9, 18 h, PS-5 79.5 μg/ml, read-out: Inhibition zone Without CER): 16 mm; zone of inhibition at 100 µg/mL (Citrobacter freundii E-9 [1]; E9, 18 h, PS-5 100 μg/ml, read-out: Inhibition zone Without CER): 17.4 mm; zone of inhibition at 159 µg/mL (Citrobacter freundii E-9 [1]; E9, 18 h, PS-5 159 μg/ml, read-out: Inhibition zone Without CER): 17.4 mm; zone of inhibition at 318 µg/mL (Citrobacter freundii E-9 [1]; E9, 18 h, PS-5 318 μg/ml, read-out: Inhibition zone Without CER): 22.5 mm; Inhibition zone With CER (Citrobacter freundii E-9 [1]; PS-5 79.5 μg/ml): 19.4 mm; Inhibition zone With CER (Citrobacter freundii E-9 [1]; PS-5 100 μg/ml): 21.6 mm; Inhibition zone With CER (Citrobacter freundii E-9 [1]; PS-5 159 μg/ml): 22.3 mm; Inhibition zone With CER (Citrobacter freundii E-9 [1]; PS-5 318 μg/ml): 24.6 mm; Inhibition zone With pen. G (Serratia marcescens S-18 [2]; PS-5 79.5 μg/ml): 13.8 mm; Inhibition zone With pen. G (Serratia marcescens S-18 [2]; PS-5 100 μg/ml): 16.1 mm; Inhibition zone With pen. G (Serratia marcescens S-18 [2]; PS-5 159 μg/ml): 22.0 mm; Inhibition zone With pen. G (Serratia marcescens S-18 [2]; PS-5 318 μg/ml): 22.1 mm; zone of inhibition at 79.5 µg/mL (Serratia marcescens S-18 [2]; S18, 18 h, PS-5 79.5 μg/ml, read-out: Inhibition zone Without pen. G): 0 mm; zone of inhibition at 100 µg/mL (Serratia marcescens S-18 [2]; S18, 18 h, PS-5 100 μg/ml, read-out: Inhibition zone Without pen. G): 13 mm; zone of inhibition at 159 µg/mL (Serratia marcescens S-18 [2]; S18, 18 h, PS-5 159 μg/ml, read-out: Inhibition zone Without pen. G): 17.8 mm; zone of inhibition at 318 µg/mL (Serratia marcescens S-18 [2]; S18, 18 h, PS-5 318 μg/ml, read-out: Inhibition zone Without pen. G): 21.3 mm; zone of inhibition at 79.5 µg/mL (Citrobacter freundii E-9 [3]; E9, 18 h, PS-5 79.5 μg/ml, read-out: Inhibition zone Without pen. G): 10.4 mm; zone of inhibition at 100 µg/mL (Citrobacter freundii E-9 [3]; E9, 18 h, PS-5 100 μg/ml, read-out: Inhibition zone Without pen. G): 13.2 mm; zone of inhibition at 159 µg/mL (Citrobacter freundii E-9 [3]; E9, 18 h, PS-5 159 μg/ml, read-out: Inhibition zone Without pen. G): 17.2 mm; zone of inhibition at 318 µg/mL (Citrobacter freundii E-9 [3]; E9, 18 h, PS-5 318 μg/ml, read-out: Inhibition zone Without pen. G): 20.8 mm; Inhibition zone With pen. G (Citrobacter freundii E-9 [3]; PS-5 79.5 μg/ml): 13.1 mm; Inhibition zone With pen. G (Citrobacter freundii E-9 [3]; PS-5 100 μg/ml): 15.2 mm; Inhibition zone With pen. G (Citrobacter freundii E-9 [3]; PS-5 159 μg/ml): 19.2 mm; Inhibition zone With pen. G (Citrobacter freundii E-9 [3]; PS-5 318 μg/ml): 23.0 mm

Question: For CCC1C(=O)N2C(C(=O)OC(c3ccccc3)(c3ccccc3)c3ccccc3)=C(SCCNC(C)=O)CC12 (single isomer, unassigned) [Trityl PS-5], which MIC [4] is on record?
Answer: 10 µg/mL (≈ 18.5 µM)

Question: And the MIC (Serratia marcescens S-18 [5])?
Answer: 10 µg/mL (≈ 18.5 µM)

Question: And the MIC [6]?
Answer: 8.7 µg/mL (≈ 16.1 µM)

Question: And the Loss of activity ([7]; aqueous solution, pH 7.5 for 90 minutes at 60° C.)?
Answer: no substantial loss of activity

Question: What about the remaining at 0.5 h ([7]; pH 3.0, 60° C. for 30 minutes, percent of control) of the same compound?
Answer: 0%

Question: And the remaining at 0.5 h ([7]; pH 4.0, 60° C. for 30 minutes)?
Answer: 0%

Question: What about the remaining at 0.5 h ([7]; pH 5.0, 60° C. for 30 minutes) of the same compound?
Answer: 6.5%

Question: What about the remaining at 0.5 h ([7]; pH 6.0, 60° C. for 30 minutes) of the same compound?
Answer: 79%

Question: What about the remaining at 0.5 h ([7]; pH 7.0, 60° C. for 30 minutes) of the same compound?
Answer: 100%

Question: And the remaining at 0.5 h ([7]; pH 8.0, 60° C. for 30 minutes)?
Answer: 100%

Question: What about the remaining at 0.5 h ([7]; pH 9.0, 60° C. for 30 minutes) of the same compound?
Answer: 100%

Question: And the Specific activity [8]?
Answer: 10,800 CCU/mg
